Experimental data taken from ChEMBL document CHEMBL4627407, “Identification of a Potent Oridonin Analogue for Treatment of Triple-Negative Breast Cancer” (J Med Chem, 2020).
pIC50: −log10 of the molar value. The source made the active and inactive calls. The rule behind the calls is not given here.

Tests used:
[1] = system: HCC1806; assay: Antimigratory activity against human HCC1806 cells assessed as reduction in MMP9 expression at 50 to 200 nM after 48 hrs by Western blot analysis; type: functional, cell-based
[2] = system: HCC1806; assay: Induction of cell death in human HCC1806 cells at 200 nM incubated for 72 hrs in presence of caspase inhibitor z-VAD by MTT assay; type: functional, cell-based
[3] = system: HCC1806; assay: Induction of intracellular reactive oxygen species generation in human HCC1806 cells at 200 nM incubated for 48 hrs in presence of ROS scavenger N-acetyl cysteine by DCFH2-DA staining based flow cytometeric analysis; type: functional, cell-based
[4] = system: NCI/ADR-RES; assay: Antiproliferative activity against human MCF7/ADR cells after 72 hrs by MTT assay; type: functional, cell-based
[5] = system: HCC1806; assay: Antimigratory activity in human HCC1806 cells assessed as reduction in integrin beta1 level after 48 hrs by Western blot analysis; type: functional, cell-based
[6] = system: HCC1806; assay: Suppression of FAK expression in human HCC1806 cells at 50 to 200 nM after 48 hrs by Western blot assay; type: functional, cell-based
[7] = Toxicity in ICR mouse assessed as induction of morphological changes in spleen at 25 mg/kg, iv administered once per day for 23 consecutive days; type: organism-based; details: in vivo
[8] = system: HCC1806; assay: Induction of intracellular reactive oxygen species generation in human HCC1806 cells assessed as accumulation of DCFH2-DA positive cells at 200 nM incubated for 48 hrs by flow cytometeric analysis (reference value: 3.53%); type: functional
[9] = Toxicity in ICR mouse assessed as induction of morphological changes in liver at 25 mg/kg, iv administered once per day for 23 consecutive days; type: organism-based; details: in vivo
[10] = system: MDA-MB-231; assay: Antiproliferative activity against human MDA-MB-231 cells after 72 hrs by MTT assay; type: functional, cell-based; details: MDA-MB-231, 72 h
[11] = system: HCC1937; assay: Antiproliferative activity against human HCC1937 cells after 72 hrs by MTT assay; type: functional, cell-based; details: HCC1937, 72 h
[12] = system: MDA-MB-468; assay: Antiproliferative activity against human MDA-MB-468 cells after 72 hrs by MTT assay; type: functional, cell-based; details: MDA-MB-468, 72 h
[13] = system: HCC1806; assay: Induction of cell death in human HCC1806 cells at 200 nM incubated for 72 hrs in presence of necroptosis inhibitor necrostatin-1 by MTT assay; type: functional, cell-based
[14] = target: Focal adhesion kinase 1 (Homo sapiens) (UniProt Q05397); assay: Inhibition of FAK phosphorylation at Tyr397 residue in human HCC1806 cells at 50 to 200 nM after 48 hrs by Western blot analysis; type: cell-based
[15] = system: SK-BR-3; assay: Antiproliferative activity against human SK-BR-3 cells after 72 hrs by MTT assay; type: functional, cell-based; details: SK-BR-3, 72 h
[16] = system: HCC1806; assay: Induction of cell cycle arrest in human HCC1806 cells assessed as accumulation at S phase at 50 nM after 48 hrs by propidium iodide staining based FACScan flow cytometry (reference value: 18.89%); type: functional
[17] = system: HCC1806; assay: Induction of cell cycle arrest in human HCC1806 cells assessed as accumulation at G2/M phase at 200 nM after 48 hrs by propidium iodide staining based FACScan flow cytometry (reference value: 10.38%); type: functional
[18] = system: HCC1806; assay: Induction of apoptosis in human HCC1806 cells assessed as viable cells at 100 uM after 48 hrs by Annexin V-FITC/propidium iodide double staining based flow cytometry (reference value: 95.7%); type: functional; details: HCC1806, 48 h, read-out: Activity
[19] = system: HCC1806; assay: Induction of cell cycle arrest in human HCC1806 cells assessed as accumulation at S phase at 200 nM after 48 hrs by propidium iodide staining based FACScan flow cytometry (reference value: 18.89%); type: functional
[20] = system: HCC1806; assay: Induction of cell cycle arrest in human HCC1806 cells assessed as accumulation at G2/M phase at 100 nM after 48 hrs by propidium iodide staining based FACScan flow cytometry (reference value: 10.38%); type: functional
[21] = system: HCC1806; assay: Inhibition of cell adhesion in human HCC1806 cells incubated for 48 hrs by phase contrast microscopy; type: functional, cell-based
[22] = Inhibition of PI3K/Akt/mTOR signalling pathway in human HCC1806 cells assessed as reduction in phosphorylated Akt expression at S473 residue after 48 hrs by Western blot analysis; type: cell-based
[23] = system: HCC1806; assay: Antitumor activity against human HCC1806 cells in ICR mouse assessed as reduction in tumor weight at 25 mg/kg, iv administered once per day for 23 consecutive days and measured every 2 days relative to control; type: functional; design: scale not given: the % may be the effect or the level left
[24] = system: NCI/ADR-RES; assay: Potency index, ratio of oridonin IC50 to compound IC50 for antiproliferative activity against human MCF7/ADR cells after 72 hrs by MTT assay; type: functional
[25] = system: HCC1806; assay: Antitumor activity against human HCC1806 cells in ICR mouse assessed as tumor shrinkage at 12.5 to 25 mg/kg, iv administered once per day for 23 consecutive days by hematoxylin and eosin staining based histopathological assay; type: functional, organism-based
[26] = system: HCC1806; assay: Induction of apoptosis in human HCC1806 cells assessed as increase in Bax expression at 50 to 200 nM after 48 hrs by Western blot analysis; type: functional, cell-based
[27] = system: HCC1806; assay: Induction of cell cycle arrest in human HCC1806 cells assessed as accumulation at G1 phase at 200 nM after 48 hrs by propidium iodide staining based FACScan flow cytometry (reference value: 70.74%); type: functional
[28] = system: HCC1806; assay: Induction of apoptosis in human HCC1806 cells assessed as viable cells at 50 uM after 48 hrs by Annexin V-FITC/propidium iodide double staining based flow cytometry (reference value: 95.7%); type: functional; details: HCC1806, 48 h, read-out: Activity
[29] = Toxicity in ICR mouse assessed as induction of morphological changes in lung at 25 mg/kg, iv administered once per day for 23 consecutive days; type: organism-based; details: in vivo
[30] = Inhibition of PI3K/Akt/mTOR signalling pathway in human HCC1806 cells assessed as reduction in phosphorylated mTOR expression at S2448 residue after 48 hrs by Western blot analysis; type: cell-based
[31] = system: HCC1806; assay: Induction of cell cycle arrest in human HCC1806 cells assessed as accumulation at G1 phase at 50 nM after 48 hrs by propidium iodide staining based FACScan flow cytometry (reference value: 70.74%); type: functional
[32] = system: HCC1806; assay: Induction of apoptosis in human HCC1806 cells assessed as early apoptotic cells at 100 uM after 48 hrs by Annexin V-FITC/propidium iodide double staining based flow cytometry (reference value: 2.16%); type: functional
[33] = system: HCC1806; assay: Antitumor activity against human HCC1806 cells in ICR mouse assessed as tumor shrinkage at 12.5 to 25 mg/kg, iv administered once per day for 23 consecutive days by Ki67 staining-based immunohistochemical analysis; type: functional, organism-based
[34] = system: HCC1806; assay: Induction of cell cycle arrest in human HCC1806 cells assessed as increase in accumulation at G2/M phase after 48 hrs by propidium iodide staining based FACScan flow cytometry; type: functional
[35] = system: HCC1806; assay: Induction of apoptosis in human HCC1806 cells assessed as necrotic cells at 100 uM after 48 hrs by Annexin V-FITC/propidium iodide double staining based flow cytometry (reference value: 1.32%); type: functional
[36] = system: HCC1806; assay: Induction of cell cycle arrest in human HCC1806 cells assessed as downregulation of cdc2 expression by western blot analysis; type: functional, cell-based

Sequence of Focal adhesion kinase 1 (Homo sapiens) (Q05397 2-1052 limits assumed): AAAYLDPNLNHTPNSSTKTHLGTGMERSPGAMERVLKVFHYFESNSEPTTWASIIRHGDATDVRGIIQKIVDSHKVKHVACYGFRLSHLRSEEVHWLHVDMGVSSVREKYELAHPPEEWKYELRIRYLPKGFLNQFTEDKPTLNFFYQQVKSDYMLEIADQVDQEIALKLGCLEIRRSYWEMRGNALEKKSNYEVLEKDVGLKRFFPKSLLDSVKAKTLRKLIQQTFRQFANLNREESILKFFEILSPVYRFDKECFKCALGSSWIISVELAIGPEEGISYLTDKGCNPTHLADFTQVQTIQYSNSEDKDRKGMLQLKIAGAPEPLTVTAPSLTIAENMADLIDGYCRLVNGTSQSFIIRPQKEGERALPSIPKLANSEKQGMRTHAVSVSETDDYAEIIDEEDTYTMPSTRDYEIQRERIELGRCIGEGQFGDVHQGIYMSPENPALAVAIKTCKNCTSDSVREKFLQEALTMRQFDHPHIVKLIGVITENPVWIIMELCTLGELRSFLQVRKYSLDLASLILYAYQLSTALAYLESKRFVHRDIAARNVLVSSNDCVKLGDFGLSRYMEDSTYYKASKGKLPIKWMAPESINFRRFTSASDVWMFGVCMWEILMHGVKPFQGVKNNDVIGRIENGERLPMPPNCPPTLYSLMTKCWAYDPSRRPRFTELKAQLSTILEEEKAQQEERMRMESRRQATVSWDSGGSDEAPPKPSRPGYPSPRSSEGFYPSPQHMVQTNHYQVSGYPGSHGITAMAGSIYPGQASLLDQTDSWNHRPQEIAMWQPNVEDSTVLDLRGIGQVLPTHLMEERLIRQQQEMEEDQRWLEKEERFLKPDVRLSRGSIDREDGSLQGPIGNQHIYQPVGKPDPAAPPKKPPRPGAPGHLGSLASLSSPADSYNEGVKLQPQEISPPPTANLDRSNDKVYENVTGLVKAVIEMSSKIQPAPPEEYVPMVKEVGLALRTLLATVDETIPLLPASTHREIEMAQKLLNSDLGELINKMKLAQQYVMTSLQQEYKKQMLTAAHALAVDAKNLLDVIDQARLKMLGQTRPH

C=C1C(=O)[C@@]23C(=O)[C@@H]4OC[C@]5(C=CCC(C)(C)[C@@H]45)[C@@H]2CC[C@@H]1[C@H]3OC(=O)/C=C/c1ccncc1
Activity [1]: Active
Activity [2]: inactive
Activity [3]: inactive
pIC50 [4]: 5.86
Activity [5]: Dose-dependent effect
inhibition [6]: inactive
Activity [7]: Non-Toxic
Activity [8]: 45.87%
Activity [9]: Non-Toxic
pIC50 [10]: 6.20
pIC50 [11]: 6.55
pIC50 [12]: 6.35
Activity [13]: Active
inhibition [14]: Active
pIC50 [15]: 6.66
Activity [16]: 18.24%
Activity [17]: 24.28%
viability at 100 µM [18]: 69%
Activity [19]: 20.74%
Activity [20]: 20.26%
inhibition [21]: Dose-dependent effect
inhibition [22]: Dose-dependent effect
Activity [23]: 74.1%
Ratio IC50 [24]: 20
Activity [25]: Active
Activity [26]: Active
Activity [27]: 54.97%
viability at 50 µM [28]: 82.2%
Activity [29]: Non-Toxic
inhibition [30]: Dose-dependent effect
Activity [31]: 65.83%
Activity [32]: 26.78%
Activity [33]: Active
Activity [34]: Dose-dependent effect
Activity [35]: 0.66%
Activity [36]: Dose-dependent effect
